Test results reported in patent publication US7504226B2, “Methods relating to treatment of atherosclerosis” (Cambridge Theranostics Ltd., priority 2001, dated 2009).
Values joined by “and” are separate entries in the source; they are usually repeats but may differ in a detail not shown here. Identical values can stand only once. “Also recorded” adds a separate entry of the source. Like-named read-outs stand apart in the source and are kept apart here. Marks after values point to notes of the source that are not given here.

Assays:
anti-Chlamydia abzymes [1] = assay type: biochemical, human; design: key to In-vitro Inhibition: + = inhibition; − = no inhibition; details: for In-vitro Inhibition: abzyme activity, metal chelators; for Anti-Abzyme activity: control 21.7
anti-Chlamydia abzymes [2] = assay type: in vivo, human; details: for Anti-Chlamydia abzyme activity: individual patients (last line: mean); for individuals positive for abzymes / individuals positive for abzymes (fraction) / abzyme activity of individuals reporting taking aspirin: + aspirin; for Anti-Chlamydia abzymes activity: Table 27 group summary
anti-Chlamydia IgG = assay type: in vivo, human; details: immuno-fluorescent assay, group summary
[3] = test system: patients with ischaemic heart disease; test: Severity of angina pectoris by modified Rose-Blackburn Questionnaire; assay type: in vivo, human; design: Score by modified Rose-Blackburn Questionnaire / Rose Blackthorn Score Day 0: scale not given here; details: for Score by modified Rose-Blackburn Questionnaire: individual patients (last line of each group: mean)
Source text: The progression of the clinical condition of the patients was monitored by the use of the modified Bruce Protocol for treadmill exercise/stress ECG testing and on the Rose-Blackburn Questionnaire (Cardiovascular Survey Methods. WHO, Geneva, 1968).

patients with angina = test: Clinical condition of angina patients treated with anti-microbial agent; assay type: in vivo, human; details: for Clinical condition: individual patients; for tablets of nitroglycerine daily: patient 5
[4] = human, in vivo
lesion IgG = assay type: biochemical, human
anti-Chlamydia abzymes [5] = assay type: biochemical, human
[6] = IHD patients negative for anti-Chlamydia IgG, individual patients
[7] = Chlamydia treated with 1% detergents or 10% solution of DMSO

CC(=O)Oc1ccccc1C(=O)O [Aspirin, acetylsalicylic acid]
Result (inhibition of abzymes) (anti-Chlamydia abzymes [1]; 10 μM of each agent): Positive | In-vitro Inhibition (anti-Chlamydia abzymes [1]): + | Anti-Chlamydia abzyme activity (anti-Chlamydia abzymes [2]; Therapy Group D, IHD, aspirin 250 mg daily, before treatment): 103 μM MDA/ml and 253 μM MDA/ml and 178 μM MDA/ml | Anti-Chlamydia abzyme activity (anti-Chlamydia abzymes [2]; Therapy Group D, 60 days after the start of treatment): 63 μM MDA/ml and 103 μM MDA/ml and 83.2 μM MDA/ml | Level of activity of anti-Chlamydia abzymes (anti-Chlamydia abzymes [2]; individual CHD patients, 7 days after starting to take 250 mg of aspirin daily): undetectably low level and 20 μM MDA/ml and 0 μM MDA/ml | Level of activity of anti-Chlamydia abzymes (anti-Chlamydia abzymes [2]; individual CHD patients, before taking aspirin): 100 μM MDA/ml and 45 μM MDA/ml (2×) | inhibition of the abzyme activity (anti-Chlamydia abzymes [2]; one CHD patient, after a week of 250 mg daily): 5 fold | Level of activity of anti-Chlamydia abzymes (anti-Chlamydia abzymes [2]; patient F, Silent Myocardial Ischaemia, aspirin intake 250 mg daily): 10 μM MDA/ml | Level of activity of anti-Chlamydia abzymes (anti-Chlamydia abzymes [2]; patient F, 7 days after re-starting to take 250 mg aspirin daily): 20 μM MDA/ml | Level of activity of anti-Chlamydia abzymes (anti-Chlamydia abzymes [2]; patient F, after stopping taking aspirin for 7 days): 65 μM MDA/ml | individuals positive for abzymes (anti-Chlamydia abzymes [2]; stable angina class I): 17% | individuals positive for abzymes (fraction) (anti-Chlamydia abzymes [2]; stable angina class I): 1/6 | abzyme activity of individuals reporting taking aspirin (anti-Chlamydia abzymes [2]; stable angina class I, individuals (r25: mean, n = 6)): 0 (3×) and 10 and 10.0 and 5 and 45 | individuals positive for abzymes (anti-Chlamydia abzymes [2]; stable angina class II): 27% | individuals positive for abzymes (fraction) (anti-Chlamydia abzymes [2]; stable angina class II): 4/15 | abzyme activity of individuals reporting taking aspirin (anti-Chlamydia abzymes [2]; stable angina class II, individuals (r25: mean, n = 15)): 10 (2×) and 0 (4×) and 5 (4×) and 25 and 22.5 and 3.3 and 16.7 and 9.2 and 30 | individuals positive for abzymes (anti-Chlamydia abzymes [2]; stable angina class III): 60% | individuals positive for abzymes (fraction) (anti-Chlamydia abzymes [2]; stable angina class III): 6/10 | abzyme activity of individuals reporting taking aspirin (anti-Chlamydia abzymes [2]; stable angina class III, individuals (r25: mean, n = 10)): 0 (3×) and 5 and 35 and 15 and 30 and 105 and 25.5 and 20 and 45 | individuals positive for abzymes (anti-Chlamydia abzymes [2]; unstable angina IV): 86% | individuals positive for abzymes (fraction) (anti-Chlamydia abzymes [2]; unstable angina IV): 6/7 | abzyme activity of individuals reporting taking aspirin (anti-Chlamydia abzymes [2]; unstable angina IV, individuals (r25: mean, n = 7)): 0 and 37 and 90 and 100 and 86.7 and 180 and 130 and 70

CC[C@H]1OC(=O)[C@H](C)[C@@H](O[C@H]2C[C@@](C)(OC)[C@@H](O)[C@H](C)O2)[C@H](C)[C@@H](O[C@@H]2O[C@H](C)C[C@H](N(C)C)[C@H]2O)[C@](C)(O)C[C@@H](C)CN(C)[C@H](C)[C@@H](O)[C@]1(C)O [Azithromycin]
Abzyme activity Day 0 (anti-Chlamydia abzymes [2]; [6]): 15 and 90 and 80 and 40 | Abzyme activity Day 60 (anti-Chlamydia abzymes [2]; [6]): 6.7 (2×) and 3.3 and 0 | Anti-Chlamydia abzyme activity (anti-Chlamydia abzymes [2]; Table 15, 15 days after the start of the treatment): 60 μM MDA/ml and 0 μM MDA/ml (3×) and 8.3 μM MDA/ml and 6.7 μM MDA/ml (3×) and 33 μM MDA/ml and 75 μM MDA/ml and 19.6 μM MDA/ml | Anti-Chlamydia abzyme activity (anti-Chlamydia abzymes [2]; Table 15, 30 days after the start of the treatment): 37 μM MDA/ml and 0 μM MDA/ml (3×) and 28 μM MDA/ml and 3.3 μM MDA/ml (2×) and 10 μM MDA/ml and 78 μM MDA/ml and 17.7 μM MDA/ml | Anti-Chlamydia abzyme activity (anti-Chlamydia abzymes [2]; Table 15, stable angina, 500 mg once per day, before treatment): 40 μM MDA/ml (2×) and 50 μM MDA/ml and 15 μM MDA/ml and 10 μM MDA/ml and 35 μM MDA/ml and 85 μM MDA/ml and 30 μM MDA/ml (2×) and 45.9 μM MDA/ml and 90 μM MDA/ml and 80 μM MDA/ml | Anti-Chlamydia abzymes activity (anti-Chlamydia abzymes [2]; 60 days after treatment): 1.6 ± 0.89 ^ μM/MDA/ml | Anti-Chlamydia abzymes activity (anti-Chlamydia abzymes [2]; before treatment): 47.5 ± 8.96 μM/MDA/ml | Anti-Chlamydia abzyme activity (anti-Chlamydia abzymes [2]; Therapy Group A, IHD, 500 mg daily, before treatment): 90 μM MDA/ml and 80 μM MDA/ml and 40 μM MDA/ml (2×) and 50 μM MDA/ml and 15 μM MDA/ml and 28 μM MDA/ml and 35 μM MDA/ml and 85 μM MDA/ml and 30 μM MDA/ml (2×) and 47.5 μM MDA/ml | Anti-Chlamydia abzyme activity (anti-Chlamydia abzymes [2]; Therapy Group A, 15 days after the start of treatment): 6.7 μM MDA/ml (3×) and 0 μM MDA/ml (3×) and 60* μM MDA/ml and 8.3 μM MDA/ml and 33 μM MDA/ml and 75* μM MDA/ml and 52* μM MDA/ml and 22.5 μM MDA/ml | Anti-Chlamydia abzyme activity (anti-Chlamydia abzymes [2]; Therapy Group A, 30 days after the start of treatment): 78** μM MDA/ml and 0 μM MDA/ml (3×) and 37* μM MDA/ml and 28** μM MDA/ml and 3.3 μM MDA/ml (2×) and 10 μM MDA/ml (2×) and 78* μM MDA/ml and 22.5 μM MDA/ml | Anti-Chlamydia abzyme activity (anti-Chlamydia abzymes [2]; Therapy Group A, 45 days after the start of treatment): 17 μM MDA/ml and 0 μM MDA/ml (5×) and 20* μM MDA/ml and 43* μM MDA/ml and 3.3 μM MDA/ml (2×) and 5.0 μM MDA/ml and 7.4 μM MDA/ml | Anti-Chlamydia abzyme activity (anti-Chlamydia abzymes [2]; Therapy Group A, 60 days after the start of treatment): 3.3 μM MDA/ml and 6.7 μM MDA/ml (2×) and 0 μM MDA/ml (7×) and 0.5 μM MDA/ml and 1.6 μM MDA/ml | Anti-Chlamydia IgG (anti-Chlamydia IgG; 60 days after treatment): 0 (titers)^−1 | Anti-Chlamydia IgG (anti-Chlamydia IgG; before treatment): 43.6 (titers)^−1 | Rose Blackthorn Score Day 0 [3, 6]: 21 and 22 and 12 and 19 | Clinical Status modified Rose G., Blackburn H. Questionnaire ([3]; group summary, before treatment): 19.4 ± 1.79 | Score by modified Rose-Blackburn Questionnaire ([3]; 60 days after start of the treatment): 19 and 10 and 13 and 16 and 18 and 15 (2×) and 8 and 11 and 17 (2×) | Score by modified Rose-Blackburn Questionnaire ([3]; before treatment): 22 and 12 and 19 and 23 and 21 and 25 (3×) and 16 and 10 and 15 and 19.4 ± 1.79 | Clinical condition (patients with angina; after 15 days of treatment): angina class II;; also recorded: Stable condition; | Clinical condition (patients with angina; before treatment): angina class III;; also recorded: Unstable angina; | tablets of nitroglycerine daily (patients with angina; after 15 days of treatment): 5 tablets of nitroglycerine | tablets of nitroglycerine daily (patients with angina; before treatment): 10 tablets of | adverse reactions [4]: No adverse reactions

C[S+](C)[O-] [DMSO]
Level of MDA production by 0.82 μg of lesion IgG (lesion IgG; LDL 480 μg of protein, +1% agent, control 0.49 ± 0.023): 0 µM | development of lipid oxidation reaction (anti-Chlamydia abzymes [5]; [7]): completely abrogated

O=C(O)CN(CCN(CC(=O)O)CC(=O)O)CCN(CC(=O)O)CC(=O)O [DTPA]
Result (inhibition of abzymes) (anti-Chlamydia abzymes [1]; 10 μM of each agent): Negative | In-vitro Inhibition (anti-Chlamydia abzymes [1]): −

O=[N+]([O-])OCC(CO[N+](=O)[O-])O[N+](=O)[O-] [Glyceryl Trinitrate]
Anti-Abzyme activity (anti-Chlamydia abzymes [1]; 4.4 μM): 0 μM MDA/ml | Anti-Abzyme activity (anti-Chlamydia abzymes [1]; 22 μM): 0 μM MDA/ml | Anti-Abzyme activity (anti-Chlamydia abzymes [1]; 44 μM): 0 μM MDA/ml | Anti-Abzyme activity (anti-Chlamydia abzymes [1]; 220 μM): 0 μM MDA/ml

O=[N+]([O-])O[C@H]1CO[C@H]2[C@@H]1OC[C@H]2O[N+](=O)[O-] [Isosorbide Dinitrate]
Anti-Abzyme activity (anti-Chlamydia abzymes [1]; 42 μM): 0 μM MDA/ml | Anti-Abzyme activity (anti-Chlamydia abzymes [1]; 211 μM): 0 μM MDA/ml

[N-]=[N+]=[N-].[Na+] [NaN3]
Result (inhibition of abzymes) (anti-Chlamydia abzymes [1]): Positive

CC(C)(S)[C@@H](N)C(=O)O [Penicillamine]
Result (inhibition of abzymes) (anti-Chlamydia abzymes [1]; 10 μM of each agent): Positive | In-vitro Inhibition (anti-Chlamydia abzymes [1]): +

O=C(O)c1ccccn1 [Picolinic acid]
Result (inhibition of abzymes) (anti-Chlamydia abzymes [1]; 10 μM of each agent): Positive | In-vitro Inhibition (anti-Chlamydia abzymes [1]): +

CCCCCCCCCCCCOS(=O)(=O)[O-].[Na+] [SDS]
lipid oxidising reaction in the test system (anti-Chlamydia abzymes [5]): no lipid oxidising reaction

N.N.O=S(=O)(O)O [ammonium sulphate]
lipid oxidising reaction in the test system (anti-Chlamydia abzymes [5]): no lipid oxidising reaction

O=C(O)c1ccccc1 [benzoic acid]
Level of MDA production by 0.82 μg of lesion IgG (lesion IgG): 0 µM

C=O [formalin]
lipid oxidising reaction in the test system (anti-Chlamydia abzymes [5]): no lipid oxidising reaction

O=C[O-].[Na+] [sodium formate]
Level of MDA production by 0.82 μg of lesion IgG (lesion IgG; LDL 480 μg of protein, +0.1 M agent, control 0.49 ± 0.023): 0 µM

octylphenoxypoly(ethyleneoxy)ethanol [IGEPAL CA-630]
development of lipid oxidation reaction (anti-Chlamydia abzymes [5]; [7]): completely abrogated | oxidation of the lipids in the bacteria by the extracted abzymes (anti-Chlamydia abzymes [5]; Chlamydia treated with non-ionic detergent): abolished

polyoxyethylene Octyl phenyl ether [TRITON X-100]
development of lipid oxidation reaction (anti-Chlamydia abzymes [5]): completely abrogated | oxidation of the lipids in the bacteria by the extracted abzymes (anti-Chlamydia abzymes [5]): abolished
